Columns and labels:
[1] = test system: reactor microbiome; experiment: inhibition of the chain-elongating reactor microbiome in the continuously fed upflow anaerobic filter; type: cell-based; settings: for high residual concentration that inhibits microbial activity: bioreactor broth, mildly acidic pH, n-caprylic acid as undissociated acid
Method: Experimental. Continuously fed bioreactor system. An upflow anaerobic filter was used with constant bioreactor broth recycling through an in-line membrane liquid-liquid extraction (i.e. pertraction) system (FIG. 8). The bioreactor was a vertically oriented cylinder, which was made of Plexiglas®, with an inner diameter of 6 cm. The total volume was 0.90 L, but […]1 packing material (Evolution Aqua, Wigan, United Kingdom) was added, resulting in a working volume of 0.70 L. […] A pH probe (Mettler 405-[…], Columbus, Ohio, USA) was mounted at the top of the bioreactor. Automated pH control of the bioreactor broth was maintained with a controller (Eutech Instruments alpha-pH800, Vernon Hills, Ill., USA) and a corresponding acid addition pump ([…] 913, Bradenton, Fla., USA). […] The effluent continuously exited the bioreactor via an overflow line connected to the top of the bioreactor. The exit of the overflow line was submerged within a secondary effluent reservoir. An inverted funnel was used to collect the biogas within the bioreactor and was connected to a flow meter (Ritter MGC-1, Bochum, Germany). In addition, a gas-sample septum and a bubbler were placed in the gas collection system. A sampling port for biomass samples was placed halfway up the vertically oriented bioreactor. Periods for the bioreactor study. This bioreactor was divided into two phases: I) a start-up phase with continuous feeding (with the product extraction system on or off); and II) a high n-caprylate productivity phase (with continuous feeding and the product extraction system on). Each phase was then divided into several distinct operating periods. From period to period, several operating parameters were varied, including the: organic loading rate (OLR); HRT; bioreactor pH; and operation with or without product extraction (Table 1). Each operating period was operated for at least five HRT periods, and average bioreactor loading rates and concentrations were reported. During Period 1 in Phase I (Days 0-15), pre-washed inoculum was added to the upflow anaerobic filter after which a continuous feeding strategy was initiated. […] The bioreactor was re-inoculated on Day 15 of Period 2 in Phase I (Days 15-54) with pre-washed inoculum, and then again on Day 54 of Period 3 of Phase I (Days 54-64) with non-washed inoculum. This last inoculation carried some carboxylates from the inoculation bioreactor. During Period 4 of Phase I (Days 64-80), the product extraction was turned off. […] In addition, we increased the OLR from 1.8 to 3.8 g COD/L-d (Table 2). Day 98 represented the start of Phase II (Period 6; Days 98-128), by switching on the product extraction system. Next, we increased the OLRs in a step-wise fashion during 4 out of the next 5 periods in Phase II. […]

[2] = cited from earlier work
[3] = test system: methanogens; experiment: toxicity to methanogens in small serum bottles; type: cell-based; settings: concentrations present in the bioreactor
Source text: Thus, at a pH of 7.0 we would have anticipated a methanogenic anaerobic digester rather than a chain elongating bioreactor. […] This explains why we can chain elongate at the higher pH levels without adding a methanogenic-inhibiting compound such as bromo-ethanesulfonate (BrES). […] This substantiates the claim that we can operate a chain elongating bioreactor sustainably at a pH level of 7.0.

Compound	residual ethanol concentration at which microbial inhibition was reached ([1]; Period 11, bioreactor broth)	high residual concentration that inhibits microbial activity [1]	solubility limit of the undissociated acid [2]	toxic concentration, times lower than n-caproic acid ([1]; undissociated acids, toxicity to the community)	toxicity of undissociated acid to methanogens [3]
CCO [ethanol]	~28 g COD/L	~300 mM			
CCCCCC(=O)O [n-caproic acid]			93 mM		
CCCCCCCC(=O)O [n-caprylic acid]		0.62 mM		approximately 10 ×	toxic

Source: patent US11203770B2, “Methods for producing caprylic acid and/or caprylate” (Cornell University, priority 2016, dated 2021)
